ChEMBL document CHEMBL6121006, “Marine natural product-inspired discovery of novel BRD4 inhibitors with anti-inflammatory activity” (Eur J Med Chem, 2025)
Calls of active or inactive are those of the source. The calls are words filed in the database; no cut-off is given here.

Assays:
Mus musculus [1] = test: Antiinflammatory activity against LPS-induced C57BL/6 mouse acute inflammation model assessed as reduction of renal injury at 100 mg/kg, po pre-administered for 2 hrs followed by LPS stimulation for 6 hrs; assay type: functional, organism-based; details: time 8.0 hrs
[2] = biological target: T1, Bromodomain-containing protein 4 (Homo sapiens, UniProt O60885); test: Inhibition of human recombinant BRD4 BD2 (349 to 460 residues) extracted from Escherichia coli BL21 (DE3) incubated for 2 hrs by TR-FRET assay
RAW264.7 [3] = test: Anti-inflammatory activity in mouse RAW264.7 cells assessed as inhibition of LPS-induced NO production preincubated with compound for 24 hrs followed by LPS stimulation by Griess reagent based analysis; assay type: functional, cell-based
[4] = biological target: Transcription initiation factor TFIID subunit 1 (Homo sapiens) (UniProt P21675); test: Inhibition of TAF1 (unknown origin) at 1 uM incubated for 2 hrs by TR-FRET assay relative to control
Mus musculus [5] = test: Antiinflammatory activity against C57BL/6 mouse acute inflammation model assessed as inhibition of LPS-induced TNF-alpha level at 50 to 100 mg/kg, po pre-administered for 2 hrs followed by LPS stimulation for 6 hrs by ELISA method; assay type: functional, organism-based; details: dose 50-100 mg/kg, time 8.0 hrs
[6] = biological target: T2, ATPase family AAA domain-containing protein 2 (Homo sapiens) (UniProt Q6PL18); test: Inhibition of ATAD2A (unknown origin) at 1 uM incubated for 2 hrs by TR-FRET assay relative to control
T2 sequence (whole entry): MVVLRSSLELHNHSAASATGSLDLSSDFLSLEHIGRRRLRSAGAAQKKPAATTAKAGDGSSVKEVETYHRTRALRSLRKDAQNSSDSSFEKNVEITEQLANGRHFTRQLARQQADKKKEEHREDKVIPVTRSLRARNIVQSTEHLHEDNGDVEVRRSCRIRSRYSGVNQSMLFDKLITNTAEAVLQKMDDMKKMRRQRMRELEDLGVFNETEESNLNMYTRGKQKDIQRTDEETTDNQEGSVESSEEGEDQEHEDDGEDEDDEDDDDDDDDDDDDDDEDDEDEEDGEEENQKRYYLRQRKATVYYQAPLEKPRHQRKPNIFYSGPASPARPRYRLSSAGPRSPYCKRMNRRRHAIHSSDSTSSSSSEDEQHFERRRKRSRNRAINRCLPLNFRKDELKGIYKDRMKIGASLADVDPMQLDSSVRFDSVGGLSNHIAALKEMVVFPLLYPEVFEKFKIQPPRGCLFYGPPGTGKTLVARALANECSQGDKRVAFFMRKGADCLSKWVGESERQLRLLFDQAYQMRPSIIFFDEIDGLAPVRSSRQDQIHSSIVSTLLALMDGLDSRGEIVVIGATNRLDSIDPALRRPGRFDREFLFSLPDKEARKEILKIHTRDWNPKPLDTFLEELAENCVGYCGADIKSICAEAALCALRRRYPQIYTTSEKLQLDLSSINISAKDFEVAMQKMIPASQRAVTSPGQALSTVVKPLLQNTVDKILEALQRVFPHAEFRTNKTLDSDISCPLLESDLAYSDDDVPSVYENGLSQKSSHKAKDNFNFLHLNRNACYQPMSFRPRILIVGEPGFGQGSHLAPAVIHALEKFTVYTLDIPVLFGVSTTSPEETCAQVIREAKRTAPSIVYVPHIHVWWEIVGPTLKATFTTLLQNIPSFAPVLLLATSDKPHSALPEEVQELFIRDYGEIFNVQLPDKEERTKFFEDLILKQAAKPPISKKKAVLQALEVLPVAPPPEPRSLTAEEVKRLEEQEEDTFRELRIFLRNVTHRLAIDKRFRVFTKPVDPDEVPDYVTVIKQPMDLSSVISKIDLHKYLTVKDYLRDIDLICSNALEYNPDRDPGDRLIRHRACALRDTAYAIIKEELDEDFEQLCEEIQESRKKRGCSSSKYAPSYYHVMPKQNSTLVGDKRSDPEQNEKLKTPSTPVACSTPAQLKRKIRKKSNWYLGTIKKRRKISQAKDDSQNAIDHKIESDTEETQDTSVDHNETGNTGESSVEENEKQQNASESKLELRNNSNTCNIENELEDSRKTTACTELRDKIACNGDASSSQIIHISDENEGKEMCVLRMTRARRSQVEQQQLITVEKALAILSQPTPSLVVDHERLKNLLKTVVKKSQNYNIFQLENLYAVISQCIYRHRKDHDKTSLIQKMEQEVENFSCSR

Mus musculus [7] = test: Antiinflammatory activity against C57BL/6 mouse acute inflammation model assessed as inhibition of LPS-induced IL-6 level at 50 to 100 mg/kg, po pre-administered for 2 hrs followed by LPS stimulation for 6 hrs by ELISA method; assay type: functional, organism-based; details: dose 50-100 mg/kg, time 8.0 hrs
Mus musculus [8] = test: Antiinflammatory activity against LPS-induced C57BL/6 mouse acute inflammation model assessed as improvement of internal brush boundary structure at 100 mg/kg, po pre-administered for 2 hrs followed by LPS stimulation for 6 hrs; assay type: functional, organism-based; details: time 8.0 hrs
[9] = biological target: T1, Bromodomain-containing protein 4; test: Induction of thermal stabilization of human recombinant BRD4 […] (42 to 167 residues) extracted from Escherichia coli BL21 (DE3) incubated for 30 mins by thermal shift assay
RAW264.7 [10] = test: Anti-inflammatory activity in mouse RAW264.7 cells assessed as inhibition of LPS-induced TNF-alpha level preincubated with compound for 2 hrs followed by LPS stimulation and measured after 22 hrs by ELISA method; assay type: functional, cell-based; details: dose 2.5-20 µM, time 24.0 hrs
[11] = biological target: T3, Bromodomain-containing protein 9 (Homo sapiens) (UniProt Q9H8M2); test: Inhibition of BRD9 (unknown origin) at 1 uM incubated for 2 hrs by TR-FRET assay relative to control
T3 sequence (whole entry): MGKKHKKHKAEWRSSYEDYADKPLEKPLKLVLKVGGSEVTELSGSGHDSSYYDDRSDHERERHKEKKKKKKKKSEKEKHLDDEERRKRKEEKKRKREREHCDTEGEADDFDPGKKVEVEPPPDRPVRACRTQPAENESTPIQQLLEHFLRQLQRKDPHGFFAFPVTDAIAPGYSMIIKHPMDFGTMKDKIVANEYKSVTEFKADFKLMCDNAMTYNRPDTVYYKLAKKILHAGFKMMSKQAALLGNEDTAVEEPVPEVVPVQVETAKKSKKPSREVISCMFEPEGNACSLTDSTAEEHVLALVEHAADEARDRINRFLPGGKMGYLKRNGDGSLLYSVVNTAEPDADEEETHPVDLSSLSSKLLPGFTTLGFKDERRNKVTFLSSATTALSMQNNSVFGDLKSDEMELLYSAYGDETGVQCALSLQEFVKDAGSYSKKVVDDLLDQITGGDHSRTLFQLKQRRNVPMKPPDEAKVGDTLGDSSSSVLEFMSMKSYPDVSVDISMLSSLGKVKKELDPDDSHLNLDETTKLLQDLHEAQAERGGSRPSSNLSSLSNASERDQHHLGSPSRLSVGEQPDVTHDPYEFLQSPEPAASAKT

RAW264.7 [12] = test: Anti-inflammatory activity in mouse RAW264.7 cells assessed as inhibition of LPS-induced TNF-alpha expression preincubated with compound for 2 hrs followed by LPS stimulation and measured after 6 hrs by RT-qPCR analysis; assay type: functional, cell-based; details: dose 2.5-20 µM, time 8.0 hrs

Sequence of Transcription initiation factor TFIID subunit 1 (Homo sapiens) (P21675 whole entry): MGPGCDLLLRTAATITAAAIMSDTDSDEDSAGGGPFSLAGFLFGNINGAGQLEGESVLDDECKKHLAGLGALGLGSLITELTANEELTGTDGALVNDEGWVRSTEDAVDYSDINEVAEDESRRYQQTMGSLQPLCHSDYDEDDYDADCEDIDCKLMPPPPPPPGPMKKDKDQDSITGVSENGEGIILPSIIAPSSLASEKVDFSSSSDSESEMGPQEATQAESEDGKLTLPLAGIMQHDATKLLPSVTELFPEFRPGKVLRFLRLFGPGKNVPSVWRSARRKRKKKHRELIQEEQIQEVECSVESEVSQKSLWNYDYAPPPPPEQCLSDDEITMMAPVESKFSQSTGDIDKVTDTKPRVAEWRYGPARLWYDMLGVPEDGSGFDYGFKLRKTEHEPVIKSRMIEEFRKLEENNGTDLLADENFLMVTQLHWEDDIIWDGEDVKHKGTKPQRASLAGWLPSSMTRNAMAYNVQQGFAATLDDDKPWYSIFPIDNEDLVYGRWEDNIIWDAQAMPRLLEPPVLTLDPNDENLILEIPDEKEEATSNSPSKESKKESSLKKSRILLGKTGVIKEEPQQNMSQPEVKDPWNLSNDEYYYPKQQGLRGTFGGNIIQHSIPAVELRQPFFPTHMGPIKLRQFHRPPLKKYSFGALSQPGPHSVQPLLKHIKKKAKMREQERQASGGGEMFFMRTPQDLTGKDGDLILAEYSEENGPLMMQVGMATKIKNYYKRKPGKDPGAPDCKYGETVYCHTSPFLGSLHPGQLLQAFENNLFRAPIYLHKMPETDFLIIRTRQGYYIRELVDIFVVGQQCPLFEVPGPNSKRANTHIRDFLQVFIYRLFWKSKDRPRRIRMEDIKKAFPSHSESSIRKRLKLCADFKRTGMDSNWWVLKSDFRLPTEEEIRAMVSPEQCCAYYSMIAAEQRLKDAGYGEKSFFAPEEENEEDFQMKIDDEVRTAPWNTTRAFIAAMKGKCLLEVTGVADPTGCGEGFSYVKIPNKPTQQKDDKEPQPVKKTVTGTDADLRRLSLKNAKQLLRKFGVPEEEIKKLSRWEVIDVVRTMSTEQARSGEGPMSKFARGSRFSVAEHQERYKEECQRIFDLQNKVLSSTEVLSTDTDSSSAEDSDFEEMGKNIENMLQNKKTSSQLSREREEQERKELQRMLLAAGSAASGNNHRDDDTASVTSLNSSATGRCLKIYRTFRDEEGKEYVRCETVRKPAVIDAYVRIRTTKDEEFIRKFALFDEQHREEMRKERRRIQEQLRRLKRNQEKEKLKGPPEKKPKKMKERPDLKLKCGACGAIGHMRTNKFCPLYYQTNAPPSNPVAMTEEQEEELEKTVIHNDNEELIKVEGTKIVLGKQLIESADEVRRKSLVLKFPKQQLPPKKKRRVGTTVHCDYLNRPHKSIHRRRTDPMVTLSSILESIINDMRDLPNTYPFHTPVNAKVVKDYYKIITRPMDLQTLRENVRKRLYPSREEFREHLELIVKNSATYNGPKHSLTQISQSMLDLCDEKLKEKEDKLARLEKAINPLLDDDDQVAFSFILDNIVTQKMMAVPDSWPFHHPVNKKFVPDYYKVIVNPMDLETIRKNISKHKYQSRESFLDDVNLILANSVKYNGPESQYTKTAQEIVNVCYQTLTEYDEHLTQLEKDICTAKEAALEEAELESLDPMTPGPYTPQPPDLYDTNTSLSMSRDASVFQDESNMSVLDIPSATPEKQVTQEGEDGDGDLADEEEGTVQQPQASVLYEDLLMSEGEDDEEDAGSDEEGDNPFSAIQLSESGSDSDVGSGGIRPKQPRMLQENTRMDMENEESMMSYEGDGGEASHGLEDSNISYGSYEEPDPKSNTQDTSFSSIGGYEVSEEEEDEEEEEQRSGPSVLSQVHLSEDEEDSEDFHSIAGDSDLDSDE

COc1ccc(/C=C/c2nc3cc(OC)cc(OC)c3c(=O)[nH]2)cc1
Activity (Mus musculus [1]): Active | IC50 [2]: 120 nM | IC50 (RAW264.7 [3]): 1980 nM | inhibition [4]: 5% | Activity (Mus musculus [5]): Active | inhibition [6]: 5% | Activity (Mus musculus [7]): Active | Activity (Mus musculus [8]): Active | Activity [9]: Active | Activity (RAW264.7 [10]): Dose-dependent-effect | inhibition [11]: 12% | Activity (RAW264.7 [12]): Dose-dependent-effect
